Data from patent publication US10227361B2, “Fused imidazobenzothiazole compounds” (TORRENT PHARMACEUTICALS LIMITED, priority 2014, dated 2019).

Biological target: T1, purified recombinant human p38 alpha MAPK (Homo sapiens, UniProt Q16539)
T1 construct: purchased Millipore, USA
Assay: Inhibition of p38 alpha MAPK activity: TR-FRET kinase assay
Type: biochemical
Experimental: Inhibition of p38 Alpha MAPK Activity: Time-Resolved Fluorescence Resonance Energy Transfer Kinase Standard Assay (TR-FRET Assay)
Compounds of present invention at various concentrations were premixed with DMSO. The experiment was initiated by mixing 0.5% 1.0% DMSO as vehicle/compounds with purified recombinant human p38 alpha MAPK (Millipore, USA) in the wells and 15 min incubation at RT. Thereafter, 30 nM of Biotinylated GST-ATF2 (Activation Transcription Factor2) and 100 μM of ATP were added in to the wells containing reaction mixture, followed by reincubation for 60 minutes at RT. Reaction was terminated by addition of 10 mM of EDTA and detection reagent containing anti-phosphothreonine ATF2 antibody (Perkin Elmer, USA) labelled with europium chelate and APC (Allophycocyanin) labeled streptavidin, into the reaction mixture which was further incubated for 60 minutes at room temperature. The degree of phosphorylation of the substrate (GST-ATF2) was measured using Envision multimode reader (Perkin Elmer). Percentage inhibition of p38 kinase activity was calculated by determining ratio of specific europium 665 nm energy transfer signal to reference 615 nm signal.

[1] = Concentration 1 μM, read-out: P38α Inhibition

T1 sequence (Q16539 whole entry): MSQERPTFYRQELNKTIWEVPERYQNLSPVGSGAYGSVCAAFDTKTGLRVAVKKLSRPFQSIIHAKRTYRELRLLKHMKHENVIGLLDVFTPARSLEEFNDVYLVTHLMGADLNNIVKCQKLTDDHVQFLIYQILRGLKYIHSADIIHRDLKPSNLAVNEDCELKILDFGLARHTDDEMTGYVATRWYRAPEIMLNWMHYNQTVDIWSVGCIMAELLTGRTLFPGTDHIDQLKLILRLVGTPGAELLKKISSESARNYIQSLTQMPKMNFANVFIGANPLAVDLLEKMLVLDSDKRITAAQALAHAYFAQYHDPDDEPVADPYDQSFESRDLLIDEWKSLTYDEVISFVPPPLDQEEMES

| Compound | inhibition at 1 µM [1] | further results |
| --- | --- | --- |
| COc1ccc(-n2nc(C(C)(C)C)cc2NC(=O)Nc2ccc(Oc3ccc4c(c3)sc3ncc(C(=O)NCCO)n34)cc2)cc1Cl [Compound 7, 7-[4-({[3-tert-butyl-1-(3-chloro-4-methoxyphenyl)-1H-pyrazol-5-yl]carbamoyl}amino)phenoxy]-N-(2-hydroxyethyl)imidazo[2,1-b][1,3]benzothiazole-3-carboxamide] | 60 to 80% |  |
| CCOC(=O)c1cnc2sc3cc(Oc4ccccc4CNC(=O)Nc4cc(C(C)(C)C)nn4-c4ccc(O)c(Cl)c4)ccc3n12 [Compound 25, ethyl 7-{2-[({[3-tert-butyl-1-(3-chloro-4-hydroxyphenyl)-1H-pyrazol-5-yl]carbamoyl}amino)methyl]phenoxy}imidazo[2,1-b][1,3]benzothiazole-3-carboxylate] |  | inhibition at 0.1 µM (Concentration 100 nM, read-out: P38α Inhibition): 60 to 80% |
| COCc1c(C)nc2sc3cc(Oc4ccccc4CNC(=O)Nc4ccc(Cl)c(C(F)(F)F)c4)ccc3n12 [Compound 49, 1-[4-chloro-3-(trifluoromethyl)phenyl]-3-(2-{[3-(methoxymethyl)-2-methylimidazo[2,1-b][1,3]benzothiazol-7-yl]oxy}benzyl)urea] | 80 to 100% |  |
| CC(C)(C)c1cc(NC(=O)NCc2ccccc2Oc2ccc3c(c2)sc2ncc(CN4CCSCC4)n23)n(-c2ccc(O)c(Cl)c2)n1 [Compound 29, 1-[3-tert-butyl-1-(3-chloro-4-hydroxyphenyl)-1H-pyrazol-5-yl]-3-(2-{[3-(thiomorpholin-4-ylmethyl)imidazo[2,1-b][1,3]benzothiazol-7-yl]oxy}benzyl)urea] | 80 to 100% |  |
| Cc1ccc(-n2nc(C(C)(C)C)cc2NC(=O)Nc2ccc(Oc3ccc4c(c3)sc3nc(C(=O)NCCN5CCOCC5)cn34)cc2)cc1 [Compound 2, 7-[4-({[3-tert-butyl-1-(4-methylphenyl)-1H-pyrazol-5-yl]carbamoyl}amino)phenoxy]-N-[2-(morpholin-4-yl)ethyl]imidazo[2,1-b][1,3]benzothiazole-2-carboxamide] | 60 to 80% |  |
| CC(C)(C)c1cc(NC(=O)NCc2ccccc2Oc2ccc3c(c2)sc2ncc(CSCCO)n23)n(-c2ccc(O)c(Cl)c2)n1 [Compound 23, 1-[3-tert-butyl-1-(3-chloro-4-hydroxyphenyl)-1H-pyrazol-5-yl]-3-{2-[(3-{[(2-hydroxyethyl)sulfanyl]methyl}imidazo[2,1-b][1,3]benzothiazol-7-yl)oxy]benzyl}urea] | 80 to 100% |  |
| CCOC(=O)c1cnc2sc3cc(Oc4ccccc4CNC(=O)Nc4cc(C(C)(C)C)nn4-c4ccc(OC)cc4)ccc3n12 [Compound 12, ethyl 7-{2-[({[3-tert-butyl-1-(4-methoxyphenyl)-1H-pyrazol-5-yl]carbamoyl}amino)methyl]phenoxy}imidazo[2,1-b][1,3]benzothiazole-3-carboxylate] | 80 to 100% |  |
| CC(C)(C)c1cc(NC(=O)NCc2ccccc2Oc2ccc3c(c2)sc2ncc(CN4CCOCC4)n23)n(-c2ccc(O)c(Cl)c2)n1 [Compound 35, 1-[3-tert-butyl-1-(3-chloro-4-hydroxyphenyl)-1H-pyrazol-5-yl]-3-(2-{[3-(morpholin-4-ylmethyl)imidazo[2,1-b][1,3]benzothiazol-7-yl]oxy}benzyl)urea] | 80 to 100% |  |
| CC(C)(C)c1cc(NC(=O)Nc2ccc(Sc3ccc4c(c3)sc3ncc(CO)n34)cc2)n(-c2ccc(O)cc2)n1 [Compound 18, 1-[3-tert-butyl-1-(4-hydroxyphenyl)-1H-pyrazol-5-yl]-3-(4-{[3-(hydroxymethyl)imidazo[2,1-b][1,3]benzothiazol-7-yl]sulfanyl}phenyl)urea] | 40 to 60% |  |
| CC(C)(C)c1cc(NC(=O)Nc2ccc(Oc3ccc4c(c3)sc3ncc(C(=O)O)n34)cc2)n(-c2ccc(O)c(Cl)c2)n1 [Compound 8, 7-[4-({[3-tert-butyl-1-(3-chloro-4-hydroxyphenyl)-1H-pyrazol-5-yl]carbamoyl}amino)phenoxy]imidazo[2,1-b][1,3]benzothiazole-3-carboxylic acid] | 80 to 100% |  |
| CC(C)(C)c1cc(NC(=O)NCc2ccccc2Oc2ccc3c(c2)sc2ncc(C(=O)O)n23)n(-c2ccc(O)cc2)n1 [Compound 13, 7-{2-[({[3-tert-butyl-1-(4-hydroxyphenyl)-1H-pyrazol-5-yl]carbamoyl}amino)methyl]phenoxy}imidazo[2,1-b][1,3]benzothiazole-3-carboxylic acid] | 80 to 100% |  |
| O=C(Nc1ccc(Oc2ccc3c(c2)sc2ncc(C(=O)O)n23)cc1)NC(CO)c1ccccc1 (stereo not drawn) [Compound 41, 7-(4-{[(2-hydroxy-1-phenylethyl)carbamoyl]amino}phenoxy)imidazo[2,1-b][1,3]benzothiazole-3-carboxylic acid] | ≤ 20% |  |
| 1-(3-tert-butyl-1-phenyl-1H-pyrazol-5-yl)-3-(2-{[3-(hydroxymethyl)-2-methylimidazo[2,1-b][1,3]benzothiazol-7-yl]oxy}benzyl)urea [Compound 38] |  | P38α Inhibition (Concentration 1 μM): +++++ (+++++ = Inhibition ≥80% ≤ 100%) |
| CC(C)(C)c1cc(NC(=O)NCc2ccccc2Oc2ccc3c(c2)sc2ncc(C(=O)NC(CO)CO)n23)n(-c2ccc(O)c(Cl)c2)n1 [Compound 21, 7-{2-[({[3-tert-butyl-1-(3-chloro-4-hydroxyphenyl)-1H-pyrazol-5-yl]carbamoyl}amino)methyl]phenoxy}-N-(1,3-dihydroxypropan-2-yl)imidazo[2,1-b][1,3]benzothiazole-3-carboxamide] | 80 to 100% |  |
| CC(C)(C)c1cc(NC(=O)NCc2ccccc2Oc2ccc3c(c2)sc2ncc(C(=O)NCCO)n23)n(-c2ccc(O)c(Cl)c2)n1 [Compound 20, 7-{2-[({[3-tert-butyl-1-(3-chloro-4-hydroxyphenyl)-1H-pyrazol-5-yl]carbamoyl}amino)methyl]phenoxy}-N-(2-hydroxyethyl)imidazo[2,1-b][1,3]benzothiazole-3-carboxamide] | 80 to 100% |  |
| Cc1ccc(-n2nc(C(C)(C)C)cc2NC(=O)Nc2ccc(Oc3ccc4c(c3)sc3nc(C(=O)NCCO)cn34)cc2)cc1 [Compound 4, 7-[4-({[3-tert-butyl-1-(4-methylphenyl)-1H-pyrazol-5-yl]carbamoyl}amino)phenoxy]-N-(2-hydroxyethyl)imidazo[2,1-b][1,3]benzothiazole-2-carboxamide] | 80 to 100% |  |
| CC(C)(C)c1cc(NC(=O)NCc2ccccc2Oc2ccc3c(c2)sc2ncc(C(=O)NCCO)n23)n(-c2ccc(O)cc2)n1 [Compound 14, 7-{2-[({[3-tert-butyl-1-(4-hydroxyphenyl)-1H-pyrazol-5-yl]carbamoyl}amino)methyl]phenoxy}-N-(2-hydroxyethyl)imidazo[2,1-b][1,3]benzothiazole-3-carboxamide] | 80 to 100% |  |
| CCOC(=O)c1cnc2sc3cc(Oc4ccccc4CNC(=O)Nc4cc(C(C)(C)C)nn4-c4ccc(O)cc4)ccc3n12 [Compound 17, Ethyl 7-{2-[({[3-tert-butyl-1-(4-hydroxyphenyl)-1H-pyrazol-5-yl]carbamoyl}amino)methyl]phenoxy}imidazo[2,1-b][1,3]benzothiazole-3-carboxylate] | 80 to 100% |  |
| CC(C)(C)c1cc(NC(=O)Nc2ccc(Oc3ccc4c(c3)sc3nc(C(=O)NCCN5CCOCC5)cn34)cc2)n(-c2ccc(O)c(Cl)c2)n1 [Compound 1, 7-[4-({[3-tert-butyl-1-(3-chloro-4-hydroxyphenyl)-1H-pyrazol-5-yl]carbamoyl}amino)phenoxy]-N-[2-(morpholin-4-yl)ethyl]imidazo[2,1-b][1,3]benzothiazole-2-carboxamide] | 40 to 60% |  |
| CC(C)(C)c1cc(NC(=O)NCc2ccccc2Oc2ccc3c(c2)sc2ncc(COCC4CC4)n23)n(-c2ccc(O)c(Cl)c2)n1 [Compound 56, 1-[3-tert-butyl-1-(3-chloro-4-hydroxyphenyl)-1H-pyrazol-5-yl]-3-[2-({3-[(cyclopropylmethoxy)methyl]imidazo[2,1-b][1,3]benzothiazol-7-yl}oxy)benzyl]urea] | 60 to 80% |  |
| COCc1c(C)nc2sc3cc(Oc4ccccc4CNC(=O)Nc4cc(C(C)(C)C)no4)ccc3n12 [Compound 50, 1-(3-tert-butyl-1,2-oxazol-5-yl)-3-(2-{[3-(methoxymethyl)-2-methylimidazo[2,1-b][1,3]benzothiazol-7-yl]oxy}benzyl)urea] | 80 to 100% |  |
| CCOC(=O)c1cnc2sc3cc(Oc4ccc(NC(=O)Nc5cc(C(C)(C)C)nn5-c5ccc(O)c(Cl)c5)cc4)ccc3n12 [Compound 26, ethyl 7-[4-({[3-tert-butyl-1-(3-chloro-4-hydroxyphenyl)-1H-pyrazol-5-yl]carbamoyl}amino)phenoxy]imidazo[2,1-b][1,3]benzothiazole-3-carboxylate] | ≤ 20% |  |
| CN(CCO)C(=O)c1cnc2sc3cc(Oc4ccccc4CNC(=O)Nc4cc(C(C)(C)C)nn4-c4ccc(O)c(Cl)c4)ccc3n12 [Compound 28, 7-{2-[({[3-tert-butyl-1-(3-chloro-4-hydroxyphenyl)-1H-pyrazol-5-yl]carbamoyl}amino)methyl]phenoxy}-N-(2-hydroxyethyl)-N-methylimidazo[2,1-b][1,3]benzothiazole-3-carboxamide] | 80 to 100% |  |
| CCOC(=O)c1cnc2sc3cc(Oc4ccc(NC(=O)Nc5c(-c6ccccc6)noc5C)cc4)ccc3n12 [Compound 43, ethyl 7-(4-{[(5-methyl-3-phenyl-1,2-oxazol-4-yl)carbamoyl]amino}phenoxy)imidazo[2,1-b][1,3]benzothiazole-3-carboxylate] | ≤ 20% |  |
